Experimental data from ChEMBL document CHEMBL4177730, “Rational modification of semaxanib and sunitinib for developing a tumor growth inhibitor targeting ATP binding site of tyrosine kinase” (2018).
Calls of active or inactive are those of the source.

Tests used:
Type in all cases: functional, cell-based
CCRF-CEM = assay: Growth inhibition of human CCRF-CEM cells at 10 uM after 48 hrs by sulforhodamine B assay
HL-60(TB) = assay: Growth inhibition of human HL-60(TB) cells at 10 uM after 48 hrs by sulforhodamine B assay
K562 = assay: Growth inhibition of human K562 cells at 10 uM after 48 hrs by sulforhodamine B assay
MOLT-4 = assay: Growth inhibition of human MOLT4 cells at 10 uM after 48 hrs by sulforhodamine B assay
RPMI-8226 = assay: Growth inhibition of human RPMI8226 cells at 10 uM after 48 hrs by sulforhodamine B assay
SR = assay: Growth inhibition of human SR cells at 10 uM after 48 hrs by sulforhodamine B assay
A549 = assay: Growth inhibition of human A549/ATCC cells at 10 uM after 48 hrs by sulforhodamine B assay
EKVX = assay: Growth inhibition of human EKVX cells at 10 uM after 48 hrs by sulforhodamine B assay
HOP-62 = assay: Growth inhibition of human HOP62 cells at 10 uM after 48 hrs by sulforhodamine B assay
HOP-92 = assay: Growth inhibition of human HOP92 cells at 10 uM after 48 hrs by sulforhodamine B assay
NCI-H226 = assay: Growth inhibition of human NCI-H226 cells at 10 uM after 48 hrs by sulforhodamine B assay
NCI-H23 = assay: Growth inhibition of human NCI-H23 cells at 10 uM after 48 hrs by sulforhodamine B assay
NCI-H322M = assay: Growth inhibition of human NCI-H322M cells at 10 uM after 48 hrs by sulforhodamine B assay
NCI-H460 = assay: Growth inhibition of human NCI-H460 cells at 10 uM after 48 hrs by sulforhodamine B assay
NCI-H522 = assay: Growth inhibition of human NCI-H522 cells at 10 uM after 48 hrs by sulforhodamine B assay
COLO 205 = assay: Growth inhibition of human COLO205 cells at 10 uM after 48 hrs by sulforhodamine B assay
HCC 2998 = assay: Growth inhibition of human HCC2998 cells at 10 uM after 48 hrs by sulforhodamine B assay
HCT-116 = assay: Growth inhibition of human HCT116 cells at 10 uM after 48 hrs by sulforhodamine B assay
HCT-15 = assay: Growth inhibition of human HCT15 cells at 10 uM after 48 hrs by sulforhodamine B assay
HT-29 = assay: Growth inhibition of human HT-29 cells at 10 uM after 48 hrs by sulforhodamine B assay
KM12 = assay: Growth inhibition of human KM12 cells at 10 uM after 48 hrs by sulforhodamine B assay
SW-620 = assay: Growth inhibition of human SW620 cells at 10 uM after 48 hrs by sulforhodamine B assay
SF-268 = assay: Growth inhibition of human SF268 cells at 10 uM after 48 hrs by sulforhodamine B assay
SF-295 = assay: Growth inhibition of human SF295 cells at 10 uM after 48 hrs by sulforhodamine B assay
SF-539 = assay: Growth inhibition of human SF539 cells at 10 uM after 48 hrs by sulforhodamine B assay
SNB-19 = assay: Growth inhibition of human SNB19 cells at 10 uM after 48 hrs by sulforhodamine B assay
SNB-75 = assay: Growth inhibition of human SNB75 cells at 10 uM after 48 hrs by sulforhodamine B assay
U-251 = assay: Growth inhibition of human U251 cells at 10 uM after 48 hrs by sulforhodamine B assay
LOX IMVI = assay: Growth inhibition of human LOXIMVI cells at 10 uM after 48 hrs by sulforhodamine B assay
Malme-3M = assay: Growth inhibition of human MALME-3M cells at 10 uM after 48 hrs by sulforhodamine B assay
M14 = assay: Growth inhibition of human M14 cells at 10 uM after 48 hrs by sulforhodamine B assay
MDA-MB-435 = assay: Growth inhibition of human MDA-MB-435 cells at 10 uM after 48 hrs by sulforhodamine B assay
SK-MEL-2 = assay: Growth inhibition of human SK-MEL-2 cells at 10 uM after 48 hrs by sulforhodamine B assay
SK-MEL-28 = assay: Growth inhibition of human SK-MEL-28 cells at 10 uM after 48 hrs by sulforhodamine B assay
SK-MEL-5 = assay: Growth inhibition of human SK-MEL-5 cells at 10 uM after 48 hrs by sulforhodamine B assay
UACC-62 = assay: Growth inhibition of human UACC62 cells at 10 uM after 48 hrs by sulforhodamine B assay
IGROV-1 = assay: Growth inhibition of human IGROV1 cells at 10 uM after 48 hrs by sulforhodamine B assay
OVCAR-3 = assay: Growth inhibition of human OVCAR3 cells at 10 uM after 48 hrs by sulforhodamine B assay
OVCAR-4 = assay: Growth inhibition of human OVCAR4 cells at 10 uM after 48 hrs by sulforhodamine B assay
OVCAR-5 = assay: Growth inhibition of human OVCAR5 cells at 10 uM after 48 hrs by sulforhodamine B assay
OVCAR-8 = assay: Growth inhibition of human OVCAR8 cells at 10 uM after 48 hrs by sulforhodamine B assay
NCI/ADR-RES = assay: Growth inhibition of human NCI-ADR-RES cells at 10 uM after 48 hrs by sulforhodamine B assay
SK-OV-3 = assay: Growth inhibition of human SKOV3 cells at 10 uM after 48 hrs by sulforhodamine B assay
786-0 = assay: Growth inhibition of human 786-0 cells at 10 uM after 48 hrs by sulforhodamine B assay
A498 = assay: Growth inhibition of human A498 cells at 10 uM after 48 hrs by sulforhodamine B assay
ACHN = assay: Growth inhibition of human ACHN cells at 10 uM after 48 hrs by sulforhodamine B assay
CAKI-1 = assay: Growth inhibition of human CAKI-1 cells at 10 uM after 48 hrs by sulforhodamine B assay
RXF 393 = assay: Growth inhibition of human RXF393 cells at 10 uM after 48 hrs by sulforhodamine B assay
SN12C = assay: Growth inhibition of human SN12C cells at 10 uM after 48 hrs by sulforhodamine B assay
TK-10 = assay: Growth inhibition of human TK10 cells at 10 uM after 48 hrs by sulforhodamine B assay
UO-31 = assay: Growth inhibition of human UO31 cells at 10 uM after 48 hrs by sulforhodamine B assay
PC-3 = assay: Growth inhibition of human PC3 cells at 10 uM after 48 hrs by sulforhodamine B assay
DU-145 = assay: Growth inhibition of human DU145 cells at 10 uM after 48 hrs by sulforhodamine B assay
MCF7 = assay: Growth inhibition of human MCF7 cells at 10 uM after 48 hrs by sulforhodamine B assay
MDA-MB-231 = assay: Growth inhibition of human MDA-MB-231 cells at 10 uM after 48 hrs by sulforhodamine B assay
Hs-578T = assay: Growth inhibition of human Hs 578T cells at 10 uM after 48 hrs by sulforhodamine B assay
BT-549 = assay: Growth inhibition of human BT549 cells at 10 uM after 48 hrs by sulforhodamine B assay
T47D = assay: Growth inhibition of human T47D cells at 10 uM after 48 hrs by sulforhodamine B assay
MDA-MB-468 = assay: Growth inhibition of human MDA-MB-468 cells at 10 uM after 48 hrs by sulforhodamine B assay

Measured: growth inhibition (GI)

O=C1/C(=C\c2cccn2Cc2ccc(F)cc2)c2ccccc2N1c1c(Cl)cccc1Cl
inactive: all assays above

O=C1/C(=C\c2ccc[nH]2)c2ccccc2N1c1c(Cl)cccc1Cl
inactive: all assays above
